Laboratory results as given in ChEMBL document CHEMBL4138283, “Cyclizidine-Type Alkaloids from Streptomyces sp. HNA39” (J Nat Prod, 2018).

What was measured:
HCT-116 = assay: Cytotoxicity against human HCT116 cells by sulforhodamine B assay; type: functional, cell-based
[1] = biological target: Rho-associated protein kinase 2 (Homo sapiens, UniProt O75116); assay: Inhibition of ROCK2 (unknown origin) using SKT S2 as substrate measured after 30 mins by HTRF assay
PC-3 = assay: Cytotoxicity against human PC3 cells by sulforhodamine B assay; type: functional, cell-based

Rho-associated protein kinase 2, sequence (O75116 whole entry): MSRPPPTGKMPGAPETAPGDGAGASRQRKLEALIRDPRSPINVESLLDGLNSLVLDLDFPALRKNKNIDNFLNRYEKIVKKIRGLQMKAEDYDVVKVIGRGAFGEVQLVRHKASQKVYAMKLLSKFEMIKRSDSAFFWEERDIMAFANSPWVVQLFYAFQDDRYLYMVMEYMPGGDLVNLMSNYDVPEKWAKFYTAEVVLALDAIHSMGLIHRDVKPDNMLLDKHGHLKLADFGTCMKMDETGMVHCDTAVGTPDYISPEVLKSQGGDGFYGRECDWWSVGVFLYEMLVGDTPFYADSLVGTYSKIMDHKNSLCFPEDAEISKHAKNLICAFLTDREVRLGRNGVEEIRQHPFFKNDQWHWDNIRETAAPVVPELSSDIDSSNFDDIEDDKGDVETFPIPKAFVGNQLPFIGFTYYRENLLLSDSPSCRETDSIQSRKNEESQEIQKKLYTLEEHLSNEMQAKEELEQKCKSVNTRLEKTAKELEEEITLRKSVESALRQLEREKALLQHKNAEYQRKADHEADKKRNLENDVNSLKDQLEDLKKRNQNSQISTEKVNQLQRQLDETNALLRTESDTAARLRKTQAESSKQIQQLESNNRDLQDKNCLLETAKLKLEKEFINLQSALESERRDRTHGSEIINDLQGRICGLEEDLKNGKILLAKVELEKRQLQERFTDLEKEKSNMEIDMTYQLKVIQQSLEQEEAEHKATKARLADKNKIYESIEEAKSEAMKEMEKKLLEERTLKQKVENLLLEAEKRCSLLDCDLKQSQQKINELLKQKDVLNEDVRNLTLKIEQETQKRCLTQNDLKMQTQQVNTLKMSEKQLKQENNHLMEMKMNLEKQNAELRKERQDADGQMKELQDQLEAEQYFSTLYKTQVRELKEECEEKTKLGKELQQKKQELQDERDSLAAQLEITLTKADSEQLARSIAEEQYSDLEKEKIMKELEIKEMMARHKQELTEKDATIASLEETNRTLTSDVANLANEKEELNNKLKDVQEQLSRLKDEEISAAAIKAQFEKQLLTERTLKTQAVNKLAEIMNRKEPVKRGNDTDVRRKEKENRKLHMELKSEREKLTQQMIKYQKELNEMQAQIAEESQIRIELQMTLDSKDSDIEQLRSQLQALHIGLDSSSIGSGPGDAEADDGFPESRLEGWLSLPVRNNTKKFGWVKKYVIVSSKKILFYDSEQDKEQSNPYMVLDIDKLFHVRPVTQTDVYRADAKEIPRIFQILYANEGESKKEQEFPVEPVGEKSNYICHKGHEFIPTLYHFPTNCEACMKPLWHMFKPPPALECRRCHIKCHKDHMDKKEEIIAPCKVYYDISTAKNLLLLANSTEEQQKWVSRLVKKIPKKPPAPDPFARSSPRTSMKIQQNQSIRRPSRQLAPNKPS

SMILES	IC50 (HCT-116)	IC50 [1]	IC50 (PC-3)
CC(/C=C/C1CC1)=C\[C@H]1[C@H](O)[C@@](C)(O)[C@H]2[C@H](O)[C@@H](O)CCN12	8.3 µM	7 µM	0.52 µM
CC(/C=C/C1CC1)=C\[C@H]1[C@H](O)[C@@](C)(O)c2c(O)ccc[n+]21	> 40 µM	27 µM	> 40 µM
CC(/C=C/C1CC1)=C\[C@H]1[C@H](O)[C@@](C)(O)[C@H]2[C@H](O)[C@@H](Cl)CCN12	40 µM	> 100 µM	33 µM
C/C(=C\C=C\CCO)C[C@H]1[C@H](O)[C@@](C)(O)[C@H]2[C@H](O)[C@@H](Cl)CCN12	> 40 µM	42 µM	17 µM
CC(/C=C/C1CC1)=C\[C@H]1[C@H](O)[C@@](C)(O)[C@H]2CCCCN12	> 40 µM	> 100 µM	> 40 µM
C/C(=C\C=C\CCO)C[C@H]1[C@H](O)[C@@](C)(O)[C@H]2CCCCN12	> 40 µM	> 100 µM	> 40 µM
CC(/C=C/C1CC1)=C\[C@H]1[C@H](O)[C@@](C)(O)[C@H]2[C@@H]3O[C@@H]3CCN12	28 µM	> 100 µM	23 µM
CC(/C=C/C1CC1)=C\[C@H]1[C@H](O)[C@@](C)(O)c2cccc[n+]21	> 40 µM	> 100 µM	> 40 µM
C/C(=C/C=C/CCO)C[C@H]1[C@H](O)[C@@](C)(O)[C@H]2[C@H](O)[C@@H](Cl)CCN12	> 40 µM	39 µM	> 40 µM
CN[C@@H]1C[C@H]2O[C@@](C)([C@@H]1OC)n1c3ccccc3c3c4c(c5c6ccccc6n2c5c31)C(=O)NC4 [STAUROSPORINE]	–	–	0.017 µM
